According to paper PMC8709997, “Long-term memory T cells as preventive anticancer immunity elicited by TuA-derived heteroclitic peptides” (Journal of Translational Medicine, 2021):
Values joined by “and” are separate entries in the source; they are usually repeats but may differ in a detail not shown here. Equal entries are not always repeated.

Experiments:
H-2 Db molecule = H-2 Db molecule (Mus musculus, UniProt P01899); test: Peptide binding to H-2 Db on TAP-deficient RMA-S cells (flow cytometry); format: cell-based, murine; settings: RMA-S cells loaded with sub-optimal 1 μM peptide, mean fluorescence intensity
Procedure: In order to experimentally confirm the binding and stability of heteroclitic peptides to H-2 Db molecule, the H-2 Db positive RMA-S cell line was loaded with a sub-optimal concentration of 1 μM of peptides.
Supplementary file 12967_2021_3194_MOESM1_ESM.pptx: Additional file 1: Fig. S1. Predicted affinity of wt and hPep peptides. The affinity to H2-Db were predicted by NetMHCpan 4.1 for wt and heteroclitic peptides. The affinity (Aff) values are expressed in nanomolarity (nM). The selected hPep peptides are indicated for both E7 and Trp2 peptides. Fig. S2. Experimental affinity of wt and hPep peptides. Binding to H2-Db molecule was assessed in TAP-deficient RMA-S cells loaded with the indicated peptides. Mean fluorescence intensity at flow cytometer indicates binding levels of peptides to HLA molecules. Fig. S3. Comparison of short-term and long-term immunization. The curve of tumor growth in the short-term and long-term immunization experiments for the B16 (A) and TC1 (B) is indicated for each individual animal. The Kaplan-Meyer curves for the B16 (C) and TC1 (D) is indicated.

[1] = system: TC-1 tumor cells expressing HPV16 E7 protein; test: Preventive immunization and TC1 tumor challenge; format: in vivo, C57BL/6 mice
Procedure: (§1) C57BL/6 (H-2-Db) female mice, 8 weeks old, were purchased from Harlan (Udine, Italy). All animals were housed at the Animal Facility of the Istituto Nazionale Tumori “Pascale” (Naples, Italy). Mice were housed in number of 2–3 per cage and maintained in a conventional facility on a 12 h light:12 h dark cycle (lights on at 7:00 a.m.) in a temperature-controlled room (22 ± 2 °C) and with food and water ad libitum at all times. The experimental protocols were in compliance with the European Communities Council directive (86/609/EEC).
(§2) Mouse melanoma B16F10 (ATCC, CRL-6323) cells were cultured in DMEM medium supplemented with 10% heat inactivated FBS, 100 U/ml penicillin and […] streptomycin (Invitrogen, Carlsbad, CA) at 37 °C with 5% CO2. Cells were tested for mycoplasma before inoculation in mice (ATCC®, 30-1012 K™). Mouse lung TC-1 tumor cells expressing HPV16 E7 protein (ATCC, CRL-2493), were cultured in RPMI medium supplemented with 10% heat inactivated FBS, 100 U/ml penicillin and […] streptomycin (Invitrogen, Carlsbad, CA), HEPES 10 mM, MEM 0.1 mM and Na Piruvate 1 mM at 37 °C with 5% CO2.
(§3) B16F10 and TC1 cells were harvested in exponential growth phase by trypsinization and washed twice with ice-cold PBS. C57BL/6 mice were subcutaneously injected with 5 × 10^4 and 1 × 10^5 cells/mouse of B16F10 or TC1 respectively on the right back flank. A cell aliquot (200μL) containing 1 × 10^6 cells was loaded in 21G syringes for intra-splenic injection. The tumor size was measured and documented every two days with a caliper, starting on day 7, and calculated using the formula (AxB^2)/2 (A as the largest and B is the smallest diameter of tumor). Tumor growth was documented as mean tumor size with standard error. To record the survival of the tumor-bearing mice, either natural death or a tumor diameter greater than 1500 mm^3 leading to death was counted as death.
(§4) Cyclophosphamide (CTX) (Endoxan®, Baxter) (10 mg/Kg) and Paclitaxel (PTX) (Taxol®, BMS) (5 mg/Kg) diluted with phosphate-buffered saline (PBS) were administered via intraperitoneal injection (i.p.). The dose was extrapolated to human equivalent dose (HED). Metronomic Chemotherapy was weekly administered one day before the vaccine administration until the end of the experiment. An anti-mouse PD-1 MAb (BioXCell, West Lebanon, NH USA) was used as checkpoint inhibitor (CI) and administered via intraperitoneal injection (i.p.) at a dose of 100 μg.
Preventive experimental setting was performed as follow: C57BL/6 mice were immunized once a week for 4 weeks by subcutaneous administration (s.c.) with WT 100ug or a mix of equimolar ratio of heteroclitic peptides (100 ug tot) formulated in 50ug PolyI:C. At the end of the immunization protocol, a group of animals were implanted with of B16F10 or TC1 cell lines (short-term memory group). In parallel, a second group was left for 2 months without any further treatment before implantation of the same number of cells (long-term memory group). Immunizations were performed in combination with metronomic chemotherapy (MCT) and CI [24–26]. One group was treated only with MCT and CI (MCT + CI group). Control mice were treated with endotoxin-free phosphate-buffered saline (PBS). At the time of sacrifice, whole blood was collected by puncture of the sinus retro-orbital vein prior analgesia with oxybuprocaine chlorhydrate (Fig. 1).
Animals were immunized in a preventative setting with either the wt or the heteroclitic E7 and Trp2 peptides. At the end of the full vaccination protocol, animals were challenged with 5 × 10^5 TC1 or 1 × 10^4 B16 tumor cells, respectively.
In order to assess the anti-tumor efficacy of the long-term memory induced by the vaccination, animals were left free of active immunization for 2 months. Animals were then challenged with 5 × 10^5 TC1 or 1 × 10^4 B16 tumor cells, respectively. […] Similarly, in the TC1 model, the long-term immunity was unable to control tumor growth as for the short-term immune response. […]

IFN-γ secreting T cells [2] = test: IFN-γ ELISpot on PBMCs, B16 experimental group; format: cell-based, C57BL/6 mice; settings: for vaccine-specific IFN-γ immune response: PBMC pools re-stimulated with 10 ug/ml single peptides; for cross-reactivity with the wt: PBMC pools, IFN-γ ELISpot
Procedure: (§5) ELISPOT was performed according to BD Biosciences manufacturer instructions (BD ELISPOT Mouse IFN-γ ELISPOT Set cod. 551,083). 5 × 10^5 splenocytes or 2 × 10^5 PBMCs from pooled samples were counted, plated in each well and stimulated with 10ug/ml of single peptides used for the immunization and incubated for 24-26 h. As negative and positive control, peptide diluents PBS and 5ug/ml of phorbol myristate acetate (PMA, Sigma-Aldrich) were used respectively. Plates were read with an AID EliSpot Reader Systems (AID GmbH, Strassberg, Germany). The results were calculated as spot forming counts as a mean of a duplicate count from the specific antigen stimulation minus the negative control.
(§6) Fig. 5 Immunological evaluation in the short-term immunization. Blood samples were drawn during the experiment from retro-orbital veins and PBMCs were isolated. Interferon-γ (IFN-γ) secreting T cells were evaluated in vitro after O/N re-stimulation with individual peptides. Pool of samples were used for each experimental groups. A and B B16 group; C and D TC1 group. SFU IFN-γ spot forming units
as §6, with “7” for “5”, “long-term” for “short-term”, “A–C” for “A and B”, “D–F” for “C and D”, “WT NEG animals in the WT group with no sign of tumor growth, HET NEG animals in the Heteroclitic group with no sign of tumor growth” for “SFU IFN-γ spot forming units”

B16F10 cells = test: Preventive immunization and B16 tumor challenge; format: in vivo, C57BL/6 mice
Procedure: as §1, §2, §3, §4
Preventive experimental setting was performed as follow: C57BL/6 mice were immunized once a week for 4 weeks by subcutaneous administration (s.c.) with WT 100ug or a mix of equimolar ratio of heteroclitic peptides (100 ug tot) formulated in 50ug PolyI:C. […]

IFN-γ secreting T cells [3] = test: IFN-γ ELISpot on PBMCs, TC1 experimental group; format: cell-based, C57BL/6 mice; settings: PBMC pools re-stimulated with 10 ug/ml single peptides
Procedure: as §5, §6
Fig. 7 Immunological evaluation in the long-term immunization. Blood samples were drawn during the experiment from retro-orbital veins and PBMCs were isolated. Interferon-γ (IFN-γ) secreting T cells were evaluated in vitro after O/N re-stimulation with individual peptides. […]

[4] = long-term: TC1 challenge 2 months after vaccination

Sequence of H-2 Db molecule (P01899 whole entry, looked up): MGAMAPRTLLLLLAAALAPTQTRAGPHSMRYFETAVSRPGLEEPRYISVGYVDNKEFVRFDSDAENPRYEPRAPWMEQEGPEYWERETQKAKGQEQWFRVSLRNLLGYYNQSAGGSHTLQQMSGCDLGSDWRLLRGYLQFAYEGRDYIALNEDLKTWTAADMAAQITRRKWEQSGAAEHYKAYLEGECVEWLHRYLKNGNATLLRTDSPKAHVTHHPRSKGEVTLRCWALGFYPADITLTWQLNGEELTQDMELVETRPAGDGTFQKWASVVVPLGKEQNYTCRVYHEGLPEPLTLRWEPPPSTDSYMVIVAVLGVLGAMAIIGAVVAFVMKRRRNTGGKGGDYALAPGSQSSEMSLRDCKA

SVYDNFVWL [N5-Trp2, heteroclitic Trp2 peptide, F5 to N substitution]
binding to the H2-Db molecule relative to wt (H-2 Db molecule): much better than the wt

SVCDFFVWL [C3-Trp2, heteroclitic Trp2 peptide, Y3 to C substitution]
binding to the H2-Db molecule relative to wt (H-2 Db molecule): equivalent binding

RAHANIVTF [A4-E7, heteroclitic E7 peptide, Y4 to A substitution]
binding to the H2-Db molecule relative to wt (H-2 Db molecule): equivalent or higher than the wt

RAHYHIVTF [H5-E7, heteroclitic E7 peptide, N5 to H substitution]
binding to the H2-Db molecule relative to wt (H-2 Db molecule): complete loss of binding

RAHYNIVTF [WT-E7]
animals still alive (n/N) [1, 4]: 3/7
tumor-free animals [1, 4]: 1
effect on tumor growth ([1]; long-term: TC1 challenge 2 months after vaccination, compared to controls): significantly delayed
animals showing late tumor growth ([1]; short-term TC1, growth at day 42 and day 51 post-challenge, follow up to day 60, data not shown): two animals
survival ([1]; short-term: TC1 challenge at end of vaccination): 100%
effect on tumor growth ([1]; short-term: TC1 challenge at end of vaccination, up to day 34): completely inhibit the tumor growth

SVYAFFVWL [A4-Trp2, heteroclitic Trp2 peptide, D4 to A substitution]
binding to the H2-Db molecule relative to wt (H-2 Db molecule): equivalent binding
vaccine-specific IFN-γ immune response (IFN-γ secreting T cells [2]; long-term setting): immunodominant
cross-reactivity with the wt (IFN-γ secreting T cells [2]; long-term setting): low cross-reactivity
vaccine-specific IFN-γ immune response (IFN-γ secreting T cells [2]; short-term setting): immunodominant
cross-reactivity with the wt (IFN-γ secreting T cells [2]; short-term setting): low cross-reactivity

SVYDFFVWL [WT-Trp2]
vaccine-specific IFN-γ immune response (IFN-γ secreting T cells [2]; long-term setting): strong and comparable
vaccine-specific IFN-γ immune response (IFN-γ secreting T cells [2]; short-term setting): strong and comparable
survival of animals (B16F10 cells; long-term: B16 challenge 2 months after vaccination, day 27 post-challenge): all animals in the wt group reached the threshold for euthanasia
effect on tumor growth (B16F10 cells; short-term: B16 challenge at end of vaccination): significantly delay tumor growth
animals still alive (n/N) (B16F10 cells; short-term: B16 challenge at end of vaccination, 34 days post-challenge, 100 ug peptide s.c. weekly x4 in 50 ug PolyI:C, with MCT and CI): 2/6
animals still alive / survival (B16F10 cells; short-term: B16 challenge at end of vaccination, 34 days post-challenge, with PolyI:C, MCT and CI): 33.3% and 33%

RAIYNIVTF [I3-E7, heteroclitic E7 peptide, H3 to I substitution]
binding to the H2-Db molecule relative to wt (H-2 Db molecule): equivalent or higher than the wt
vaccine-specific IFN-γ immune response (IFN-γ secreting T cells [3]; long-term setting): immunodominant
vaccine-specific IFN-γ immune response (IFN-γ secreting T cells [3]; short-term setting): immunodominant
